Assay results as given in article PMC7031696 (Cell chemical biology, 2019).

System: 3D7-MR4 trophozoite parasite-infected RBCs
Test: Metabolomic profiling (hydrophilic metabolite changes, UHPLC-MS)
Type: cell-based, Plasmodium falciparum

## CC(C)(C)NCc1cc(Nc2ccnc3cc(Cl)ccc23)c2c(c1O)CCCC2 [Naphtoquine, Naphthoquine, reference compound]
Metabolite adenosine, log2 fold change
  Log2(fold changes) adenosine: 0.0000
Metabolite alanine/sarcosine, log2 fold change
  Log2(fold changes) alanine/sarcosine: -0.0537
Metabolite anthranilate, log2 fold change
  Log2(fold changes) anthranilate: 0.0000
Metabolite arginine, log2 fold change
  Log2(fold changes) arginine: 0.0159
Metabolite asparagine, log2 fold change
  Log2(fold changes) asparagine: 0.0139
Metabolite aspartate, log2 fold change
  Log2(fold changes) aspartate: -0.0605
Metabolite biotin, log2 fold change
  Log2(fold changes) biotin: 0.0000
Metabolite cCMP, log2 fold change
  Log2(fold changes) cCMP: 0.0520
Metabolite cGMP, log2 fold change
  Log2(fold changes) cGMP: 0.0000
Metabolite carnitine, log2 fold change
  Log2(fold changes) carnitine: 0.0000
Metabolite citrate/isocitrate, log2 fold change
  Log2(fold changes) citrate/isocitrate: -0.0500
Metabolite coenzyme A
  Log2(fold change) of coenzyme A: -0.1736
Metabolite cyclic-AMP
  Log2(fold change) of cyclic-AMP: -3.95e-5
Metabolite cytidine
  Log2(fold change) of cytidine: 0.0481
Metabolite dAMP
  Log2(fold change) of dAMP: -0.6907
Metabolite dATP
  Log2(fold change) of dATP: 0.1926
Metabolite dCDP
  Log2(fold change) of dCDP: -0.7164
Metabolite dCMP
  Log2(fold change) of dCMP: -0.1991
Metabolite dCTP
  Log2(fold change) of dCTP: -0.0054
Metabolite dGDP/ADP
  Log2(fold change) of dGDP/ADP: -0.3882
Metabolite dGMP/AMP
  Log2(fold change) of dGMP/AMP: -0.6721
Metabolite dGTP/ATP
  Log2(fold change) of dGTP/ATP: 0.1282
Metabolite dTDP
  Log2(fold change) of dTDP: -0.6082
Metabolite dTMP
  Log2(fold change) of dTMP: -0.8354
Metabolite dTTP
  Log2(fold change) of dTTP: 0.1193
Metabolite dUMP
  Log2(fold change) of dUMP: 0.0000
Metabolite dUTP
  Log2(fold change) of dUTP: 0.0000
Metabolite deoxyguanosine
  Log2(fold change) of deoxyguanosine: 0.0000
Metabolite deoxyinosine
  Log2(fold change) of deoxyinosine: 0.0000
Metabolite deoxyribose-phosphate
  Log2(fold change) of deoxyribose-phosphate: 0.0000
Metabolite deoxyuridine
  Log2(fold change) of deoxyuridine: 0.0000
Metabolite dihydroorotate
  Log2(fold change) of dihydroorotate: -0.0270
Metabolite folate
  Log2(fold change) of folate: -0.0482
Metabolite fructose-1-6-bisphosphate
  Log2(fold change) of fructose-1-6-bisphosphate: 0.2760
Metabolite fructose-6-phosphate
  Log2(fold change) of fructose-6-phosphate: 0.2447
Metabolite fumarate
  Log2(fold change) of fumarate: 0.1140
Metabolite glucono-lactone
  Log2(fold change) of glucono-lactone: 0.0480
Metabolite glucose-1/6-phosphate
  Log2(fold change) of glucose-1/6-phosphate: 0.0000
Metabolite glutamate
  Log2(fold change) of glutamate: 0.0377
Metabolite glutamine
  Log2(fold change) of glutamine: 0.0892
Metabolite glutathione
  Log2(fold change) of glutathione: -0.0422
Metabolite glutathione disulfide
  Log2(fold change) glutathione disulfide: -0.0039
Metabolite glycerate
  Log2(fold change) glycerate: 0.0000
Metabolite guanine
  Log2(fold change) guanine: -1.1501
Metabolite guanosine
  Log2(fold change) guanosine: 0.0000
Metabolite histidine
  Log2(fold change) histidine: 0.1439
Metabolite homocysteic acid
  Log2(fold change) homocysteic acid: 0.0000
Metabolite hydroxyphenylpyruvate
  Log2(fold change) hydroxyphenylpyruvate: 0.0000
Metabolite hydroxyproline/Aminolevulinate
  Log2(fold change) hydroxyproline/Aminolevulinate: 0.1631
Metabolite hypoxanthine
  Log2(fold change) hypoxanthine: 0.0000
Metabolite indole
  Log2(fold change) indole: 0.0000
Metabolite inosine
  Log2(fold change) inosine: -0.4099
Metabolite isoleucine
  Log2(fold change) isoleucine: 0.1976
Metabolite lactate
  Log2(fold change) lactate: -0.2436
Metabolite leucine
  Log2(fold change) leucine: 0.1923
Metabolite lysine
  Log2(fold change) lysine: 0.0742
Metabolite malate
  Log2(fold change) malate: 0.0333
Metabolite maleic acid
  Log2(fold change) maleic acid: 0.0474
Metabolite methionine
  Log2(fold change) methionine: 0.2831
Metabolite myo-inositol
  Log2(fold change) myo-inositol: -0.3601
Metabolite nicotinamide mononucleotide
  Log2(fold change) nicotinamide mononucleotide: 0.0144
Metabolite nicotinate
  Log2(fold change) nicotinate: -0.5500
Metabolite ornithine
  Log2(fold change) ornithine: 0.0000
Metabolite orotate
  Log2(fold change) orotate: -0.1816
Metabolite orotidine-5'-phosphate
  Log2(fold change) orotidine-5'-phosphate: -0.1754
Metabolite oxaloacetate
  Log2(fold change) oxaloacetate: 0.0000
Metabolite p-aminobenzoate
  Log2(fold change) p-aminobenzoate: 0.0000
Metabolite p-hydroxybenzoate
  Log2(fold change) p-hydroxybenzoate: 0.0000
Metabolite pantothenate
  Log2(fold change) pantothenate: 0.0000
Metabolite phenylalanine
  Log2(fold change) phenylalanine: 0.1566
Metabolite phenylpyruvate
  Log2(fold change) phenylpyruvate: 0.0000
Metabolite phosphoenolpyruvate
  Log2(fold change) phosphoenolpyruvate: 0.1381
Metabolite prephenate
  Log2(fold change) prephenate: 0.0000
Metabolite proline
  Log2(fold change) proline: -0.0640
Metabolite pyridoxine
  Log2(fold change) pyridoxine: -0.2953
Metabolite pyruvate
  Log2(fold change) pyruvate: -0.0949
Metabolite riboflavin
  Log2(fold change) riboflavin: 0.0784
Metabolite ribose
  Log2(fold change) ribose: 0.2671
Metabolite ribose-phosphate
  Log2(fold change) ribose-phosphate: 0.0683
Metabolite ribulose-5-phosphate
  Log2(fold change) ribulose-5-phosphate: 0.2669
Metabolite serine
  Log2(fold change) serine: 0.0398
Metabolite sn-glycerol-3-phosphate
  Log2(fold change) sn-glycerol-3-phosphate: 0.2727
Metabolite succinate/Methylmalonic acid
  Log2(fold change) succinate/Methylmalonic acid: 0.1812
Metabolite succinyl-CoA/methylmalonyl-CoA
  Log2(fold change) succinyl-CoA/methylmalonyl-CoA: 0.0000
Metabolite taurine
  Log2(fold change) taurine: 0.1018
Metabolite thiamine
  Log2(fold change) thiamine: -0.0320
Metabolite threonine/homoserine
  Log2(fold change) threonine/homoserine: -0.0093
Metabolite thymidine
  Log2(fold change) thymidine: 0.0000
Metabolite thymine, log2 fold change
  Log2(fold changes) thymine: 0.0000
Metabolite trehalose-6-Phosphate, log2 fold change
  Log2(fold changes) trehalose-6-Phosphate: 0.0000
Metabolite tryptophan, log2 fold change
  Log2(fold changes) tryptophan: 0.2627
Metabolite tyrosine, log2 fold change
  Log2(fold changes) tyrosine: 0.1902
Metabolite uridine, log2 fold change
  Log2(fold changes) uridine: 0.0000
Metabolite valine, log2 fold change
  Log2(fold changes) valine: 0.0658
Metabolite xanthine, log2 fold change
  Log2(fold changes) xanthine: -0.8439
Metabolite xanthosine-5-phosphate, log2 fold change
  Log2(fold changes) xanthosine-5-phosphate: 0.0356
Metabolite xanthosine, log2 fold change
  Log2(fold changes) xanthosine: 0.2527
Metabolite xylose, log2 fold change
  Log2(fold changes) xylose: 0.0000
